In patent US8236956B2, “Cyclopamine analogues and methods of use thereof” (Infinity Pharmaceuticals, Inc., priority 2004, dated 2012):

Tested on: psoriasis lesions
Test: not given
Conditions: topical application; Tas et al., 2004 Dermatology 209: 126-131; cited from earlier work
For `CC1=C2C[C@H]3[C@@H](CC=C4C[C@@H](O)CC[C@@]43C)[C@@H]2CC[C@]12O[C@@H]1C[C@H](C)CN[C@H]1[C@H]2C` [cyclopamine], the “effect on psoriasis lesions” value is given as “full or partial regression of the lesion”.

Tested on: Hedgehog pathway
Test: C3H10T1/2 differentiation assay (alkaline phosphatase), inhibition of the Hedgehog pathway in cell culture
Type: cell-based
Conditions: Mus musculus, C3H 10T1/2, read-out: Differentiation Assay EC50 (Approximate EC50 for Inhibition)
From the text: Hedgehog pathway specific cancer cell killing effects may be ascertained using the following assay. C3H10T1/2 cells differentiate into osteoblasts when contacted with the sonic hedgehog peptide (Shh-N). Upon differentiation; these osteoblasts produce high levels of alkaline phosphatase (AP) which can be measured in an enzymatic assay (Nakamura et al., 1997 BBRC 237: 465). Compounds that block the differentiation of C3H10T1/2 into osteoblasts (a Shh dependent event) can therefore be identified by a reduction in AP production (van der Horst et al., 2003 Bone 33: 899). The assay details are described below. The results approximate (EC50 for inhibition) of the differentiation assay is shown below in Table 1.
Mouse embryonic mesoderm fibroblasts C3H10T1/2 cells (obtained from ATCC) were cultured in Basal MEM Media (Gibco/Invitrogen) supplemented with 10% heat inactivated FBS (Hyclone), 50 units/ml penicillin and 50 ug/ml streptomycin (Gibco/Invitrogen) at 37 C with 5% CO2 in air atmosphere.
C3H10T1/2 cells were plated in 96 wells with a density of 8×10^3 cells/well. Cells were grown to confluence (72 hrs). After sonic Hedgehog (250 ng/ml), (R&D Systems) and/or compound treatment, the cells were lysed in 110 µl of lysis buffer (50 mM Tris pH 7.4, 0.1% TritonX100), plates were sonicated and lysates spun through 0.2 um PVDF plates (Corning). 40 ul of lysates was assayed for AP activity in alkaline buffer solution (Sigma) containing 1 mg/ml p-Nitrophenyl Phosphate. After incubating for 30 min at 37 C, the plates were read on an Envision plate reader at 405 nm. Total protein was quantified with a BCA protein assay kit from Pierce according to manufacturer's instructions. AP activity was normalized against total protein.
For `CC1=C2C[C@H]3[C@@H](CCC4=CC(=O)CC[C@@]43C)[C@@H]2CC[C@@]2(C1)O[C@@H]1C[C@H](C)CN(CCO)[C@H]1[C@H]2C` [Compound 39], the EC50 was > 500 nM. Molecule `CC1=C2C[C@H]3[C@@H](CCC4=CC(=O)CC[C@@]43C)[C@@H]2CC[C@@]2(C1)O[C@@H]1C[C@H](C)CN(CCN(C)C)[C@H]1[C@H]2C` [Compound 45] has an EC50 of 200 to 500 nM. With `C[C@@H]1CN[C@H]2[C@@H](C)[C@@]3(CC[C@H]4[C@@H]5CC=C6C[C@@H](O)CC[C@]6(C)[C@H]5CC45CC53C)O[C@@H]2C1` (some centres unmarked) [Compound 1] the EC50 was > 500 nM. For `CC1=C2C[C@H]3[C@@H](CC=C4C[C@@H](O)CC[C@@]43C)[C@@H]2CC[C@@]2(C1)O[C@@H]1C[C@H](C)CN(CCNC(=O)CNC(=O)CCc3ccccc3)[C@H]1[C@H]2C` [Compound 30], the EC50 was < 200 nM. In the case of `CC1=C2C[C@H]3[C@@H](CCC4=CC(=O)CC[C@@]43C)[C@@H]2CC[C@@]2(C1)O[C@@H]1C[C@H](C)CN(CCNC(=O)CCc3ccccc3)[C@H]1[C@H]2C` [Compound 21], the EC50 is reported as < 200 nM. `CC1=C2C[C@H]3[C@@H](CC=C4C[C@@H](O)CC[C@@]43C)[C@@H]2CC[C@@]2(C1)O[C@@H]1C[C@H](C)CN[C@H]1[C@H]2C` [Compound 19] gave an EC50 of 200 to 500 nM. For `C[C@@H]1CN[C@H]2[C@@H](C)[C@@]3(CC[C@H]4[C@@H]5CCC6=CC(=O)CC[C@]6(C)[C@H]5CC45CC53C)O[C@@H]2C1` (some centres unmarked) [Compound 11], the EC50 was > 500 nM. In the case of `CC1=C2C[C@H]3[C@@H](CC=C4C[C@@H](O)CC[C@@]43C)[C@@H]2CC[C@@]2(C1)O[C@@H]1C[C@H](C)CN(C)[C@H]1[C@H]2C` [Compound 20], the EC50 is reported as > 500 nM.

Same assay, conditions: Mus musculus, C3H 10T1/2; C3H10T1/2 cells, sonic Hedgehog 250 ng/ml, AP activity normalized against total protein; approximate; read-out: Differentiation Assay EC50 (Approximate EC50 for Inhibition)
For `COCCOCCOCCN1C[C@@H](C)C[C@H]2O[C@]3(CC[C@@H]4C(=C(C)C3)C[C@H]3[C@H]4CCC4=CC(=O)CC[C@@]43C)[C@H](C)[C@@H]21` [Compound 33], the EC50 was < 200 nM. In the case of `CC1=C2C[C@H]3[C@@H](CCC4=CC(=O)CC[C@@]43C)[C@@H]2CC[C@@]2(C1)O[C@@H]1C[C@H](C)CN(Cc3ccc(Oc4ccccc4)cc3)[C@H]1[C@H]2C` [Compound 37], the EC50 is reported as > 500 nM. Work on `CC1=C2C[C@H]3[C@@H](CCC4=CC(=O)CC[C@@]43C)[C@@H]2CC[C@@]2(C1)O[C@@H]1C[C@H](C)CN(CCOCCOCc3ccccc3)[C@H]1[C@H]2C` [Compound 43] yielded an EC50 of 200 to 500 nM. With `CC1=C2C[C@H]3C(CCC4=CC(=O)CC[C@@]43C)[C@@H]2CC[C@@]2(C1)O[C@@H]1C[C@H](C)CN(CCCl)[C@H]1[C@H]2C` (some centres unmarked) [Compound 28] the EC50 was > 500 nM. With `C[C@H]1C[C@H]2O[C@]3(CC[C@H]4[C@@H]5CCC6=CC(=O)CC[C@]6(C)[C@H]5CC45CC53C)[C@H](C)[C@@H]2N(CCNC(=O)CCCCCNC(=O)CCc2ccccc2)C1` (some centres unmarked) [Compound 17] the EC50 was < 200 nM. With `C[C@H]1C[C@H]2O[C@]3(CC[C@H]4[C@@H]5CC=C6C[C@@H](O)CC[C@]6(C)[C@H]5CC45CC53C)[C@H](C)[C@@H]2N(CCNC(=O)CCCCCNC(=O)CCc2ccccc2)C1` (some centres unmarked) [Compound 4] the EC50 was < 200 nM. With `CC1=C2C[C@H]3[C@@H](CCC4=CC(=O)CC[C@@]43C)[C@@H]2CC[C@@]2(C1)O[C@@H]1C[C@H](C)CN(Cc3ccccc3)[C@H]1[C@H]2C` [Compound 35] the EC50 was < 200 nM. In the case of `COCCOCCOCCOCCN1C[C@@H](C)C[C@H]2O[C@]3(CC[C@@H]4C(=C(C)C3)C[C@H]3[C@H]4CCC4=CC(=O)CC[C@@]43C)[C@H](C)[C@@H]21` [Compound 31], the EC50 is reported as < 200 nM. Molecule `CC1=C2C[C@H]3[C@@H](CCC4=CC(=O)CC[C@@]43C)[C@@H]2CC[C@@]2(C1)O[C@@H]1C[C@H](C)CN(CC(=O)NCCCc3ccccc3)[C@H]1[C@H]2C` [Compound 47] has an EC50 of 200 to 500 nM. In the case of `CC1=C2C[C@H]3[C@@H](CCC4=CC(=O)CC[C@@]43C)[C@@H]2CC[C@@]2(C1)O[C@@H]1C[C@H](C)CN[C@H]1[C@H]2C` [Compound 18], the EC50 is reported as < 200 nM. In the case of `COCCOCCN1C[C@@H](C)C[C@H]2O[C@]3(CC[C@@H]4C(=C(C)C3)C[C@H]3[C@H]4CCC4=CC(=O)CC[C@@]43C)[C@H](C)[C@@H]21` [Compound 41], the EC50 is reported as < 200 nM. For `COCCOCCN1C[C@@H](C)C[C@H]2O[C@]3(CC[C@@H]4C(=C(C)C3)C[C@H]3C4CCC4=CC(=O)CC[C@@]43C)[C@H](C)[C@@H]21` (some centres unmarked) [Compound 29], the EC50 was < 200 nM. In the case of `CC1=C2C[C@H]3C(CC=C4C[C@@H](O)CC[C@@]43C)[C@@H]2CC[C@@]2(C1)O[C@@H]1C[C@H](C)CN(CCCl)[C@H]1[C@H]2C` (some centres unmarked) [Compound 27], the EC50 is reported as > 500 nM. Molecule `CC1=C2C[C@H]3[C@@H](CCC4=CC(=O)CC[C@@]43C)[C@@H]2CC[C@@]2(C1)O[C@@H]1C[C@H](C)CN(CCNS(=O)(=O)CCc3ccccc3)[C@H]1[C@H]2C` [Compound 24] has an EC50 of 200 to 500 nM.
